Nine compounds from patent US12459952B2, “TREM2 modulators” (Muna Therapeutics ApS, priority 2024, dated 2025) can be followed below.

The term Emax denotes the greatest response seen or fitted, relative to the assay's reference. For orientation: EC50 means the concentration needed to bring the measured effect to its halfway point. A high value points to lower potency in that assay.

For the test, the target named is T1, Human TREM2 (Homo sapiens, UniProt Q9NZC2).
T1 construct: expressed in transfected cells
T1 sequence (Q9NZC2 19-230): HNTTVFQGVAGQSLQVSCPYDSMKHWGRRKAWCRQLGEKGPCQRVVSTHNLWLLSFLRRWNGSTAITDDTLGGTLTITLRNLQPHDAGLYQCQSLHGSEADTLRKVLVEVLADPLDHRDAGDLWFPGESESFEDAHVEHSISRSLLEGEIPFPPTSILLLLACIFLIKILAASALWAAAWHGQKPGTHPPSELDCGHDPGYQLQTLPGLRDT
T1 sequence (O43914 22-113 partner): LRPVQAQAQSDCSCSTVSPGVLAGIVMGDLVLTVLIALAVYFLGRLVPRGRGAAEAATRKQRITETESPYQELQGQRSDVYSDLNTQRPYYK
Briefly: Human TREM2 cellular phospho-Syk AlphaLISA assay in HEK293/DAP12+TREM2 stable cell line. Format: cell-based. Particulars: HEK293/DAP12+TREM2 cells; for Emax: maximal response relative to the maximal response of the reference agonist, phospho-Syk AlphaLISA; for EC50: phospho-Syk (Tyr525/526) AlphaLISA signal, 30 min incubation. The source says: Human TREM2, in vitro Measurement of Triggering Receptor Expressed on Myeloid Cells 2 activity using cellular phosphorylation of Spleen Tyrosine Kinase (“Syk”) Assay
HEK-293 cells were co-transfected with separate plasmids encoding TREM2 and DAP12 to generate a stable cell line. After antibiotic selection, functional clone pool analysis and two successive limiting dilutions, the final clone “HEK293/DAP12+TREM2” underwent a qPCR analysis and a pharmacological validation.
TREM2 signaling through DAP12 was monitored in the HEK293/DAP12+TREM2 stable cell line by measuring the phosphorylation levels of the Syk kinase using the commercially available AlphaLISA SureFire Ultra p-SYK (Tyr525/526) Assay Kit (PerkinElmer #ALSU-PSYK), based on the Perkin Elmer AlphaScreen/AlphaLISA technology.
Compounds are transferred to the test plate and tested in full dose response, 8 concentrations in quadruplicate data points. Compound serial dilutions were performed at Cybi-Felix instrument in 100% DMSO and the dose response curves were assembled in automated fashion in 384MPT at Hamilton STARlet instrument. All the stock solutions were prepared at 20 mM in 100% DMSO. For compounds testing, the starting concentration was 100 μM, dilution steps 1:6. A different concentration's range was adapted for compound's activity based on the preliminary results. Finally, a 384MPT reformatted for all compounds at 8 concentrations, quadruplicates, was used as “mother to child” process with a CyBi@-Well dispenser in which 1 μL of each compound was moved into a destination plate pre-filled with […] of EMEM cell culture medium (BIOWHITTAKER_cat.BE12-125F), thus obtaining 3× concentrated compounds working solution. In columns 1-2 and 23-24 the control wells were added. In particular, dose response curves of a reference control agonist were included in column 1 and 24 as reference control agonist (Reference control agonists used include Human TREM2 polyclonal Antibody AF1828: R&D Systems; Human TREM2 monoclonal Antibody MAB1828: R&D Systems). The dose response curves were tested starting at 30 μM, dilution step 1:6. Both “source” compound plate and “destination” compound plate were barcoded and a relationship between the two plates was thus generated.
HEK293/DAP12+TREM2 cells were cultured in EMEM medium supplemented with IX Penicillin/Streptomycin (BIOWHITTAKER_cat.DE17-602E), ULTRAGLUTAMINE I 200 mM, 10% Fetal Bovine Serum plus antibiotics referred to as “HEK293 Culture Medium”. The day before the experiment, cells were detached by gentle wash with DPBS, followed by 5 min incubation at 37° C. with Trypsin solution. Cells were then diluted in HEK293 Culture Medium without antibiotics, counted and seeded into 384-well poly-D-Lysine coated microplates black/clear bottom (GREINER 781946) at a density of 10,000 cells/well in 25 μL/well by the use of a MATRIX WellMate dispenser. Plates were placed into a humidified cell culture incubator at 37° C. with 5% CO2 until the experimental day. 20-24 hours after seeding mature medium was removed and replaced with 10 μL/well of EMEM cell medium supplemented with 0.1% Pluronic F-68 non-ionic surfactant (Thermofisher, 24040032), referred to as “Assay Buffer”, using the CyBi@-Well instrument. Then 5 μL/well of Assay Buffer containing 3× concentrated test compounds or the reference control agonist (in 0.5% final DMSO concentration) were added to the cells with the CyBi@-Well instrument. Cell plates were incubated for 30 min into a humidified cell culture incubator at 37° C. with 5% CO2, then the medium was removed by manually discard. 20 μL/well of lysis buffer were dispensed using the CyBi@-Well instrument and plates were incubated for 10 min at room temperature on a plate shaker (350 rpm). Then, 10 μL/well of lysate were transferred to the Alpha plates.
The CyBi@-Well instrument was used to dispense 5 μL/well of AlphaLISA Acceptor Bead Solution in IX Immunoassay buffer (Perkin Elmer AL000F). […]
(In general: Bead proximity is the source of the signal in Alpha formats.)

Regarding `Cc1cc(CC2CN(c3nc(-c4ccc(F)cc4F)c4nc(C(F)(F)F)n(C)c(=O)c4n3)C2)ccn1` [Example 34, 8-(2,4-difluorophenyl)-3-methyl-6-(3-((2-methylpyridin-4-yl)methyl)azetidin-1-yl)-2-(trifluoromethyl)pyrimido[5,4-d]pyrimidin-4(3H)-one], the Emax was below 75% and the EC50 was in the range of 10 to 100 nM.
In turn, `Cn1c(C(F)(F)F)nc2c(-c3ccc(C#N)cc3F)nc(N3CC(Oc4cncnc4)C3)nc2c1=O` [Example 27, 3-fluoro-4-(7-methyl-8-oxo-2-(3-(pyrimidin-5-yloxy)azetidin-1-yl)-6-(trifluoromethyl)-7,8-dihydropyrimido[5,4-d]pyrimidin-4-yl)benzonitrile] gave an Emax below 75% and an EC50 of 100 to 1000 nM.
On to `Cn1c(C(F)(F)F)nc2c(-c3ccc(C#N)cc3F)nc(N3CC(Oc4ccnc(OC(F)F)c4)C3)nc2c1=O` [Example 24, 4-(2-(3-((2-(difluoromethoxy)pyridin-4-yl)oxy)azetidin-1-yl)-7-methyl-8-oxo-6-(trifluoromethyl)-7,8-dihydropyrimido[5,4-d]pyrimidin-4-yl)-3-fluorobenzonitrile], for which the Emax was in the range of 75 to 110% and the EC50 lay within 10 to 100 nM.
`CCc1nnc(OC2CN(c3nc(-c4ccc(C#N)cc4F)c4nc(C(F)(F)F)n(C)c(=O)c4n3)C2)s1` [Example 4, 4-(2-(3-((5-ethyl-1,3,4-thiadiazol-2-yl)oxy)azetidin-1-yl)-7-methyl-8-oxo-6-(trifluoromethyl)-7,8-dihydropyrimido[5,4-d]pyrimidin-4-yl)-3-fluorobenzonitrile]: the Emax was 75 to 110% and the EC50 was in the range of 100 to 1000 nM.
`Cc1ncc(OC2CN(c3nc(-c4ccc(C#N)cc4F)c4nc(C(F)(F)F)n(C)c(=O)c4n3)C2)cn1` [Example 28, 3-fluoro-4-(7-methyl-2-(3-((2-methylpyrimidin-5-yl)oxy)azetidin-1-yl)-8-oxo-6-(trifluoromethyl)-7,8-dihydropyrimido[5,4-d]pyrimidin-4-yl)benzonitrile] displayed an Emax below 75% and an EC50 of 100 to 1000 nM.
`Cn1c(C(F)(F)F)nc2c(-c3ccc(C#N)cc3F)nc(N3CC(Oc4ccnc(C(F)(F)F)c4)C3)nc2c1=O` [Example 25, 3-fluoro-4-(7-methyl-8-oxo-6-(trifluoromethyl)-2-(3-((2-(trifluoromethyl)pyridin-4-yl)oxy)azetidin-1-yl)-7,8-dihydropyrimido[5,4-d]pyrimidin-4-yl)benzonitrile] registered an Emax of 75 to 110% and an EC50 of 10 to 100 nM.
The compound `Cc1nn(C)cc1OC1CN(c2nc(-c3ccc(C#N)cc3F)c3nc(C(F)(F)F)n(C)c(=O)c3n2)C1` [Example 10, 4-(2-(3-((1,3-dimethyl-1H-pyrazol-4-yl)oxy)azetidin-1-yl)-7-methyl-8-oxo-6-(trifluoromethyl)-7,8-dihydropyrimido[5,4-d]pyrimidin-4-yl)-3-fluorobenzonitrile] had an Emax below 75% and an EC50 of 100 to 1000 nM.
On the same counts, the results for `Cc1nnc(OC2CN(c3nc(-c4ccc(C#N)cc4F)c4nc(C(F)(F)F)n(C)c(=O)c4n3)C2)s1` [Example 3, 3-fluoro-4-(7-methyl-2-(3-((5-methyl-1,3,4-thiadiazol-2-yl)oxy)azetidin-1-yl)-8-oxo-6-(trifluoromethyl)-7,8-dihydropyrimido[5,4-d]pyrimidin-4-yl)benzonitrile] are below 75% and 100 to 1000 nM.
As for `Cn1c(C(F)(F)F)nc2c(-c3ccc(C#N)cc3F)nc(N3CC(Oc4ccnc(C5CC5)c4)C3)nc2c1=O` [Example 22, 4-(2-(3-((2-cyclopropylpyridin-4-yl)oxy)azetidin-1-yl)-7-methyl-8-oxo-6-(trifluoromethyl)-7,8-dihydropyrimido[5,4-d]pyrimidin-4-yl)-3-fluorobenzonitrile], the Emax lay within 75 to 110% and the EC50 fell in the range of 10 to 100 nM.
